These results are taken from US9164109B2, “Use of probes for unbound metabolites” (priority 2006, dated 2015).

For the series, the target named is T1, HSA (Homo sapiens, UniProt P02768).
T1 construct: from tissue; host or cells: blood plasma of healthy adult donors, diluted to 1%
The series is described as follows: Equilibrium-binding model of UCB and HSA. The settings on record: value used to calculate model [UCBf], [HSA]=6.5 μM, FIG. 2. Here is the method:
Investigations of the effects of FFA on our UCB probes are necessary because the probes are constructed from FABP mutants and FFA are abundant in plasma. Interference testing of every possible component of plasma, however, is not feasible. Therefore UCBf was measured in samples of diluted plasma, from 6 healthy adult donors, titrated with UCB. Because the [UCBf] is determined by the UCB:HSA ratio, the [HSA] of each plasma sample was measured using a Bromcresol Green Albumin Determination Kit from Sigma-Aldrich. HSA concentrations were similar for all samples and ranged from 620 to 680 μM. Plasma [FFAu] was measured with ADIFAB2 and ranged from 1.0 to 3.6 nM. The L24P19C7 probe at 0.5 μM was used to measure [UCBf] in 1% plasma (i.e., 6.2 to 6.8 μM HSA) titrated with UCB (FIG. 2). This probe has the following mutations with reference to rat Intestinal Fatty Acid Binding Protein (SEQ ID NO: 4): Y14R M18L L38V V60R A72L A73F R106C Q115R and Y117D. Without the addition of UCB, all samples yielded a [UCBf] of nearly zero, in good agreement with the 0 to 1 nM [UCBf] expected for a healthy adult. […] Indeed, the increase was consistent with the change in [UCBf] predicted using the equilibrium-binding model, confirming the accuracy of the probe in plasma.

pKd: −log10 of the molar value.

T1 sequence (P02768 25-609): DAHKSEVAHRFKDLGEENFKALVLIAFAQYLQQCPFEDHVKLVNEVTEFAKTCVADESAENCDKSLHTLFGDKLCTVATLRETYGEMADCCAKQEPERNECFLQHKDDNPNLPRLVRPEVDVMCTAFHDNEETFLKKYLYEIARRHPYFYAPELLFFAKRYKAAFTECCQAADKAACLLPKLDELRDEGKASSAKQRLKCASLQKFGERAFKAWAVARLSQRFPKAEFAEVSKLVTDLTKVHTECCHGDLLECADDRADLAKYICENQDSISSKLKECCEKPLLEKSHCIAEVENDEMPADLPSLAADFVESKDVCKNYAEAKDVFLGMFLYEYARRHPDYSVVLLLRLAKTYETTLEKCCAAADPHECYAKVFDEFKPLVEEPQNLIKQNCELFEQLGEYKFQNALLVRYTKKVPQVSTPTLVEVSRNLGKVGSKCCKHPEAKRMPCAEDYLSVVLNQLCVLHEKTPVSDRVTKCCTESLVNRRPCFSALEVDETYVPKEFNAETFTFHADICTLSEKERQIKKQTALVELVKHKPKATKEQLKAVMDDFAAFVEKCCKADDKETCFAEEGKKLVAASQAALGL

Regarding `C=CC1=C(C)/C(=C/c2[nH]c(Cc3[nH]c(/C=C4\NC(=O)C(C)=C4C=C)c(C)c3CCC(=O)O)c(CCC(=O)O)c2C)NC1=O` [UCB, unconjugated bilirubin], the pKd is 7.72.

One may read the pKd as the negative decadic logarithm of the Kd, by convention in mol/L.
